According to PubChem BioAssay (NCI):
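How tested: cells in 96-well plates exposed to compound for 48 hours at five concentrations. TGI is the concentration that stops growth completely.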

How the values were obtained:
Experiment in all cases: growth of human tumour cells (NCI), 48 h
[1] = tested on: CCRF-CEM leukemia
[2] = tested on: MDA-N
[3] = tested on: SNB-75 CNS
[4] = tested on: RXF 393 renal
[5] = tested on: HOP-62 NSCLC
[6] = tested on: MALME-3M melanoma
[7] = tested on: SK-MEL-28 melanoma
[8] = tested on: HL-60(TB) leukemia
[9] = tested on: A498 renal
[10] = tested on: M14 melanoma
[11] = tested on: NCI-H460 lung
[12] = tested on: CAKI-1 renal
[13] = tested on: ACHN renal
[14] = tested on: COLO 205 colon
[15] = tested on: OVCAR-4 ovarian
[16] = tested on: 786-0 renal
[17] = tested on: HT29 colon
[18] = tested on: HCC-2998 colon
[19] = tested on: OVCAR-5 ovarian
[20] = tested on: HS 578T breast
[21] = tested on: MDA-MB-231 breast
[22] = tested on: K-562 leukemia
[23] = tested on: SK-OV-3 ovarian
[24] = tested on: HOP-92 NSCLC
[25] = tested on: SF-539 CNS
[26] = tested on: MDA-MB-435
[27] = tested on: SK-MEL-5 melanoma
[28] = tested on: LOX IMVI melanoma
[29] = tested on: OVCAR-8 ovarian
[30] = tested on: SR leukemia
[31] = tested on: UACC-257 melanoma
[32] = tested on: KM12 colon
[33] = tested on: EKVX NSCLC
[34] = tested on: UACC-62 melanoma
[35] = tested on: NCI/ADR-RES ovarian
[36] = tested on: SN12C renal
[37] = tested on: MOLT-4 leukemia
[38] = tested on: A549 NSCLC
[39] = tested on: IGROV1 ovarian
[40] = tested on: OVCAR-3 ovarian
[41] = tested on: SK-MEL-2 melanoma
[42] = tested on: TK-10 renal
[43] = tested on: SNB-19 CNS
[44] = tested on: HCT-15 colon
[45] = tested on: NCI-H226 lung
[46] = tested on: MCF7 breast
[47] = tested on: SW-620 colon
[48] = tested on: NCI-H23 lung
[49] = tested on: SF-295 CNS
[50] = tested on: UO-31 renal
[51] = tested on: U251 CNS
[52] = tested on: BT-549 breast
[53] = tested on: PC-3 prostate
[54] = tested on: HCT-116 colon
[55] = tested on: NCI-H522 lung
[56] = tested on: RPMI-8226 leukemia
[57] = tested on: SF-268 CNS

Structure (SMILES): O=C1Nc2c(Cl)cc(Cl)cc2/C1=N/N=C/c1ccccc1O
- TGI [1]: 58.7 µM
- TGI [2]: 35.1 µM
- TGI [3]: 48.2 µM
- TGI [4]: 50.7 µM
- TGI [5]: 41.3 µM
- TGI [6]: 88.4 µM
- TGI [7]: 40.3 µM
- TGI [8]: 49.7 µM
- TGI [9]: 36.9 µM
- TGI [10]: 49.8 µM
- TGI [11]: 34.4 µM
- TGI [12]: 47.4 µM
- TGI [13]: > 100 µM
- TGI [14]: 31.4 µM
- TGI [15]: > 100 µM
- TGI [16]: 40.9 µM
- TGI [17]: 40.4 µM
- TGI [18]: 34.3 µM
- TGI [19]: 48.7 µM
- TGI [20]: 72.2 µM
- TGI [21]: 54.7 µM
- TGI [22]: 68.1 µM
- TGI [23]: 88.1 µM
- TGI [24]: 62.8 µM
- TGI [25]: 41.6 µM
- TGI [26]: 51.6 µM
- TGI [27]: 47.5 µM
- TGI [28]: 31.8 µM
- TGI [29]: > 100 µM
- TGI [30]: 46.5 µM
- TGI [31]: 66.3 µM
- TGI [32]: 68.4 µM
- TGI [33]: 91.5 µM
- TGI [34]: 32.1 µM
- TGI [35]: 51.7 µM
- TGI [36]: 34.9 µM
- TGI [37]: 62.5 µM
- TGI [38]: 88.4 µM
- TGI [39]: 85.8 µM
- TGI [40]: 34 µM
- TGI [41]: 39.9 µM
- TGI [42]: > 100 µM
- TGI [43]: > 100 µM
- TGI [44]: 51 µM
- TGI [45]: 74.6 µM
- TGI [46]: 94.2 µM
- TGI [47]: 59.3 µM
- TGI [48]: 40.3 µM
- TGI [49]: 47.7 µM
- TGI [50]: > 100 µM
- TGI [51]: 36.1 µM
- TGI [52]: 35.7 µM
- TGI [53]: 53.5 µM
- TGI [54]: 32.1 µM

Structure (SMILES): CN(C)CCCNC(=O)CCNC(=O)c1cc(NC(=O)c2cc(NC(=O)c3cc(NC(=O)CCCNC(=O)c4cc(NC(=O)c5cc(NC(=O)c6nccn6C)cn5C)cn4C)cn3C)cn2C)cn1C
- TGI [1]: > 100 µM
- TGI [2]: > 100 µM
- TGI [3]: > 100 µM
- TGI [4]: > 100 µM
- TGI [5]: > 100 µM
- TGI [6]: > 100 µM
- TGI [7]: > 100 µM
- TGI [8]: > 100 µM
- TGI [9]: > 100 µM
- TGI [10]: > 100 µM
- TGI [11]: > 100 µM
- TGI [12]: > 100 µM
- TGI [13]: > 100 µM
- TGI [14]: > 100 µM
- TGI [15]: > 100 µM
- TGI [16]: > 100 µM
- TGI [17]: > 100 µM
- TGI [18]: > 100 µM
- TGI [19]: > 100 µM
- TGI [20]: > 100 µM
- TGI [21]: > 100 µM
- TGI [22]: > 100 µM
- TGI [55]: > 100 µM
- TGI [23]: > 100 µM
- TGI [24]: > 100 µM
- TGI [56]: > 100 µM
- TGI [25]: > 100 µM
- TGI [26]: > 100 µM
- TGI [57]: > 100 µM
- TGI [27]: > 100 µM
- TGI [28]: > 100 µM
- TGI [29]: > 100 µM
- TGI [31]: > 100 µM
- TGI [32]: > 100 µM
- TGI [33]: > 100 µM
- TGI [35]: > 100 µM
- TGI [36]: > 100 µM
- TGI [37]: > 100 µM
- TGI [38]: > 100 µM
- TGI [39]: > 100 µM
- TGI [40]: > 100 µM
- TGI [41]: > 100 µM
- TGI [42]: > 100 µM
- TGI [43]: > 100 µM
- TGI [44]: > 100 µM
- TGI [45]: > 100 µM
- TGI [46]: > 100 µM
- TGI [47]: > 100 µM
- TGI [48]: > 100 µM
- TGI [49]: > 100 µM
- TGI [50]: > 100 µM
- TGI [51]: > 100 µM
- TGI [53]: > 100 µM
- TGI [54]: > 100 µM
